Test systems include 786-0; NCI-H460; HT-29; IGROV-1; CAKI-1; MOLT-4; RPMI-8226; OVCAR-8; HCT-116; CCRF-CEM; UACC-62; SF-539; SNB-19; COLO 205; NCI-H522; OVCAR-3; HCT-15; Hs-578T; HCC 2998; BT-549.
Common to all, as to assay: NCI anticancer screen, dose series, 48 h

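Five compound concentrations were applied to cells in 96-well plates for 48 hours; endpoints were derived by simple linear interpolation of the resulting dose-response curve. Abbreviation: GI50, concentration required for 50% inhibition of growth.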 The source made the active and inactive calls. No stated cut-off is given here; in the data, active = GI50 up to about 1.1 µM and inactive = higher.

As for `COC(=O)[C@]12CC[C@H]3CN(C(=O)OCc4ccccc4)[C@H]([C@H]31)[C@H](C(=O)OCC[Si](C)(C)C)N2S(=O)(=O)c1ccc(C)cc1`, the GI50 with 786-0 is > 100 µM (inactive); in the assay on NCI-H460, > 100 µM (inactive); in the assay on HT-29 it was 42.7 µM (inactive); with IGROV-1 it was > 100 µM (inactive); in the assay on CAKI-1, > 100 µM (inactive); with MOLT-4 it was 19.5 µM (inactive). Also, the GI50 in the assay on RPMI-8226 is 8.45 µM (inactive); in the assay on OVCAR-8, > 100 µM (inactive); in the assay on HCT-116, 23 µM (inactive); in the assay with CCRF-CEM, 54 µM (inactive); with UACC-62 it was > 100 µM (inactive); in the assay on SF-539, > 100 µM (inactive). In addition, the GI50 was > 100 µM (inactive) with SNB-19; 17.5 µM (inactive) in the assay on COLO 205; > 100 µM (inactive) in the assay with NCI-H522; > 100 µM (inactive) in the assay with OVCAR-3; above 100 µM with HCT-15; > 100 µM (inactive) in the assay with Hs-578T. For the same compound, the GI50 in the assay with HCC 2998 and with BT-549 was > 100 µM (inactive) each time.

As for `C#CCn1ncc2c(SCc3ccccc3)ncnc21`, the GI50 is > 100 µM (inactive) with 786-0; > 100 µM (inactive) with NCI-H460; > 100 µM (inactive) in the assay on HT-29; > 100 µM (inactive) in the assay on IGROV-1; 57.8 µM (inactive) in the assay on CAKI-1; 11.8 µM (inactive) in the assay with MOLT-4. Moreover, the GI50 in the assay on RPMI-8226 is > 100 µM (inactive); in the assay with OVCAR-8 it was > 100 µM (inactive); in the assay with HCT-116 it was 62.8 µM (inactive); in the assay on CCRF-CEM, 79.8 µM (inactive); with UACC-62 it was > 100 µM (inactive); in the assay with SF-539, > 100 µM (inactive). In addition, the GI50 was > 100 µM (inactive) in the assay with SNB-19; > 100 µM (inactive) with COLO 205; 73.1 µM (inactive) with NCI-H522; > 100 µM (inactive) in the assay with OVCAR-3; above 100 µM with HCT-15; > 100 µM (inactive) in the assay on Hs-578T. The GI50 in the assay on HCC 2998 and in the assay with BT-549 was > 100 µM (inactive) in each case.

Regarding `CC/C(Cl)=N\OC(=O)Nc1ccc(OC)c(C)c1`, the GI50 in the assay on 786-0 is 12.5 µM (inactive); with NCI-H460 it was 41.2 µM (inactive); with HT-29, 17.4 µM (inactive); in the assay with IGROV-1, 16.4 µM (inactive); with CAKI-1 it was 0.832 µM (active); in the assay on MOLT-4 it was 5.74 µM (inactive). Further, the GI50 with RPMI-8226 was 11.9 µM (inactive); in the assay with OVCAR-8 it was 17.5 µM (inactive); with HCT-116 it was 12.6 µM (inactive); in the assay with CCRF-CEM it was 4.93 µM (inactive); in the assay with UACC-62 it was 15 µM (inactive); with SF-539, 17.4 µM (inactive). For the same compound, the GI50 was 42.1 µM (inactive) in the assay with SNB-19; 15.1 µM (inactive) in the assay with COLO 205; 2.21 µM (inactive) in the assay on NCI-H522; 16.4 µM (inactive) in the assay with OVCAR-3; 6.34 µM with HCT-15; 16.9 µM (inactive) with Hs-578T. The figures for the GI50 in the assay with HCC 2998 and in the assay on BT-549 were 19.6 µM (inactive) and 12.9 µM (inactive), respectively.

On to `Cc1cc(C2(c3cc(C)c(O)c4ncccc34)OC(=O)c3ccccc32)c2cccnc2c1O`, for which the GI50 in the assay with 786-0 was 0.0178 µM (active); with NCI-H460 it was < 0.001 µM (active); in the assay on HT-29 it was 0.0406 µM (active); in the assay with IGROV-1, 0.0378 µM (active); in the assay with CAKI-1, 0.00953 µM (active); with MOLT-4, 0.522 µM (active). Moreover, the GI50 is 0.012 µM (active) in the assay on RPMI-8226; 0.00615 µM (active) with OVCAR-8; 0.00268 µM (active) in the assay on HCT-116; 0.01 µM (active) in the assay with CCRF-CEM; 0.0158 µM (active) with UACC-62; 0.0376 µM (active) in the assay on SF-539. The GI50 is 0.0174 µM (active) in the assay on SNB-19; 0.67 µM (active) in the assay with COLO 205; 0.01 µM (active) in the assay with NCI-H522; 0.0056 µM (active) with OVCAR-3; below 0.001 µM in the assay with HCT-15; 0.0127 µM (active) in the assay with Hs-578T. In addition, the GI50 is 0.0468 µM (active) with HCC 2998 and 0.031 µM (active) in the assay on BT-549.

For the compound `O=S1(=O)c2ccccc2NC(=S)N1c1ccccc1`, the GI50 in the assay on 786-0 is > 87.3 µM (inactive); with NCI-H460 it was > 79.1 µM (inactive); in the assay on HT-29, > 13.4 µM (inactive); in the assay with IGROV-1 it was 2.45 µM (inactive); with CAKI-1, > 72.8 µM (inactive); in the assay with MOLT-4, 29.5 µM (inactive). Further, the GI50 was > 59.2 µM (inactive) with RPMI-8226; 34.6 µM (inactive) in the assay on OVCAR-8; 45.3 µM (inactive) in the assay with HCT-116; 54.1 µM (inactive) in the assay on CCRF-CEM; 65.9 µM (inactive) with UACC-62; > 100 µM (inactive) in the assay on SF-539. Besides, the GI50 in the assay with SNB-19 was 7.1 µM (inactive); in the assay on COLO 205, 77.8 µM (inactive); in the assay on NCI-H522, 21.3 µM (inactive); with OVCAR-3 it was 41.4 µM (inactive); in the assay on HCT-15 it was 75 µM; with Hs-578T it was 69.2 µM (inactive). Also, the GI50 is 53.5 µM (inactive) in the assay on HCC 2998 and 47.6 µM (inactive) in the assay on BT-549.

In the case of `CC(=O)c1ccc(Nc2c3ccccc3nc3occc23)cc1`, the GI50 was < 0.01 µM (active) in the assay on 786-0; 0.01 µM (active) in the assay with NCI-H460; < 0.01 µM (active) in the assay with HT-29; < 0.01 µM (active) with IGROV-1; < 0.01 µM (active) in the assay on CAKI-1; < 0.01 µM (active) with MOLT-4. Moreover, the GI50 is < 0.01 µM (active) in the assay on RPMI-8226; 0.0174 µM (active) in the assay on OVCAR-8; < 0.01 µM (active) in the assay with HCT-116; < 0.01 µM (active) with CCRF-CEM; < 0.01 µM (active) in the assay on UACC-62; < 0.01 µM (active) in the assay on SF-539. Also, the GI50 was < 0.0168 µM (active) in the assay on SNB-19; < 0.01 µM (active) in the assay on COLO 205; < 0.01 µM (active) with NCI-H522; < 0.01 µM (active) with OVCAR-3; below 0.01 µM with HCT-15; 0.0152 µM (active) in the assay with Hs-578T. Also, the GI50 is 0.0498 µM (active) with HCC 2998 and 2.12 µM (inactive) in the assay with BT-549.

With `CC(C)=NNc1ncnc2[nH]cnc12`, the GI50 with 786-0 is 5.83 µM (inactive); in the assay with NCI-H460, 7.06 µM (inactive); in the assay on HT-29, 6.04 µM (inactive); with IGROV-1 it was 7.82 µM (inactive); in the assay on CAKI-1 it was 3.66 µM (inactive); in the assay with MOLT-4 it was 9.06 µM (inactive). Also, the GI50 in the assay on RPMI-8226 is 4.83 µM (inactive); in the assay on OVCAR-8 it was 5.55 µM (inactive); in the assay on HCT-116, 3.71 µM (inactive); in the assay with CCRF-CEM, 4.9 µM (inactive); in the assay on UACC-62 it was 2.68 µM (inactive); with SF-539 it was 36.4 µM (inactive). In addition, the GI50 was 45.5 µM (inactive) in the assay on SNB-19; 5.94 µM (inactive) with COLO 205; 2.86 µM (inactive) in the assay with NCI-H522; 5.78 µM (inactive) in the assay on OVCAR-3; 6.01 µM in the assay with HCT-15; 11.8 µM (inactive) in the assay on Hs-578T. Further, the results for the GI50 in the assay with HCC 2998 and in the assay with BT-549 were 5.04 µM (inactive) and 48.1 µM (inactive), respectively.

As to `CN(O)C(=S)c1ccccc1`, the GI50 in the assay with 786-0 was 1.38 µM (inactive); in the assay on NCI-H460, 2.9 µM (inactive); in the assay on HT-29, 0.312 µM (active); in the assay on IGROV-1, 3.52 µM (inactive); in the assay on CAKI-1 it was 4.25 µM (inactive); in the assay with MOLT-4, 0.325 µM (active). In addition, the GI50 with RPMI-8226 is 0.325 µM (active); in the assay on OVCAR-8, 2.47 µM (inactive); in the assay with HCT-116, 1.49 µM (inactive); in the assay with CCRF-CEM, 0.105 µM (active); in the assay with UACC-62, 1.85 µM (inactive); in the assay on SF-539, 9.59 µM (inactive). Further, the GI50 is 30.2 µM (inactive) in the assay with SNB-19; 0.379 µM (active) in the assay on COLO 205; 0.0944 µM (active) with NCI-H522; 2.45 µM (inactive) in the assay on OVCAR-3; 2.47 µM in the assay with HCT-15; > 20.2 µM (inactive) in the assay with Hs-578T. Also, the GI50 in the assay with HCC 2998 is 6.34 µM (inactive); in the assay on BT-549, > 100 µM (inactive).

Consider `COc1cc2c(cc1OC)-c1cc3ccccc3c(=O)n1CCC2`, for which the GI50 is 6.97 µM (inactive) in the assay with 786-0; 1.76 µM (inactive) in the assay with NCI-H460; 4.17 µM (inactive) in the assay on HT-29; 7.48 µM (inactive) in the assay with IGROV-1; 7.85 µM (inactive) in the assay on CAKI-1; 1.89 µM (inactive) in the assay with MOLT-4. Further, the GI50 was 7.91 µM (inactive) with RPMI-8226; 9.35 µM (inactive) with OVCAR-8; 3.94 µM (inactive) with HCT-116; 6.73 µM (inactive) with CCRF-CEM; 11.4 µM (inactive) with UACC-62; 2.94 µM (inactive) in the assay with SF-539. Moreover, the GI50 with SNB-19 is 18 µM (inactive); in the assay on COLO 205 it was 8.47 µM (inactive); with NCI-H522 it was 9.25 µM (inactive); with OVCAR-3, 15.9 µM (inactive); in the assay with HCT-15, 2.07 µM; in the assay on Hs-578T, 14.8 µM (inactive). In addition, the values for the GI50 in the assay on HCC 2998 and in the assay with BT-549 were 13.7 µM (inactive) and 13.1 µM (inactive), respectively.

Take `CCCC(=O)OC[n+]1ccc(-c2c(COC(=O)NC(C)C)c(COC(=O)NC(C)C)c3n2CCC3)cc1`: the GI50 with 786-0 was 51.9 µM (inactive); in the assay with NCI-H460, 76.4 µM (inactive); in the assay on HT-29, > 100 µM (inactive); with IGROV-1, > 100 µM (inactive); with CAKI-1, 21.8 µM (inactive); with MOLT-4, 41.5 µM (inactive). The GI50 in the assay with RPMI-8226 is > 100 µM (inactive); in the assay with OVCAR-8, > 100 µM (inactive); in the assay on HCT-116 it was > 100 µM (inactive); in the assay on CCRF-CEM, 44.6 µM (inactive); with UACC-62, 47 µM (inactive); with SF-539, 28.1 µM (inactive). Moreover, the GI50 in the assay on SNB-19 is > 100 µM (inactive); with COLO 205 it was > 100 µM (inactive); in the assay with NCI-H522 it was > 100 µM (inactive); with OVCAR-3, > 100 µM (inactive); with HCT-15, above 100 µM; in the assay on Hs-578T it was > 100 µM (inactive). Also, the GI50 in the assay with HCC 2998 and in the assay with BT-549 was > 100 µM (inactive) throughout.

The record behind these values is ChEMBL document CHEMBL1201862, “PubChem BioAssay data set” (2004).
